Literature values, collected in patent US20260008814A1, “DEVELOPMENT OF PEPTIDES WITH ANTI-CANCER AND ANTIMICROBIAL PROPERTIES” (YILDIZ TEKNIK ÜNIVERSITESI DÖNER SERMAYE ISLETME MÜD, priority 2023, published 2026).

System: F. nucleatum attachment and invasion of HCT116

ASANWTIQYND
inhibition of F. nucleatum attachment and invasion: inhibitory peptide
